Where two headings read alike, the source gives them in different places.
Experiments:
[1] = Plasma PK of major maoto compounds by LC-MS/MS after oral administration of maoto; type: in vivo, rat
Protocol: 1 (7:00-19:00). Rats were maintained and used for the experiments in accordance
2 with the Guidelines for the Care and Use of Laboratory Animals of Tsumura &
3 CO. All experimental procedures were carried out upon approval from the
4 Laboratory Animal Committee of Tsumura & CO.
8 administered to 16-h fasted rats (n=3). […]
14 and 4 g/10mL/kg) were determined by LC-MS/MS. Based on a literature search,
16 amygdalin, prunasin, scopoletin, l-ephedrine, d-pseudoephedrine,
1 Plasma PK data were analyzed by noncompartmental modeling using
2 Phoenix WinNonlin (version 6.3, Certara L.P., St. Louis, MO, USA) to determine
3 various PK constants including Cmax, tmax, t1/2, and AUC0–last. The t1/2 was divided
4 by loge2/ke, where ke is the rate constant of terminal elimination (at least three
5 data points on the descending linear limb). […]

[2] = type: in vivo, rat
Protocol: Distilled water and saline were administered as vehicle to rats in each control group. […] Plasma cytokine levels were measured by ELISA or multiplex immunoassay; common metabolites and lipid mediators were analyzed by GC-MS/MS and LC-MS/MS, respectively.
Pathway maps of lipid mediators were created by using CellDesigner 4.4 software (http://www.celldesigner.org). We evaluated the effects of the treatments on specific lipid mediators and categorized them according to COX, CYP and LOX pathways by Fisher’s exact test. The proinflammatory and anti-inflammatory indices were analyzed as described by Tam et al. with modification.[22]

[3] = Sprague-Dawley, rat, plasma, po, 1 g/kg
[4] = Sprague-Dawley, rat, plasma, po, 1 g/kg, read-out: Cmax
[5] = Sprague-Dawley, rat, plasma, po, 1 g/kg, read-out: Tmax
[6] = Sprague-Dawley, rat, plasma, po, 2 g/kg
[7] = Sprague-Dawley, rat, plasma, po, 2 g/kg, read-out: Cmax
[8] = Sprague-Dawley, rat, plasma, po, 2 g/kg, read-out: Tmax
[9] = Sprague-Dawley, rat, plasma, po, 4 g/kg
[10] = Sprague-Dawley, rat, plasma, po, 4 g/kg, read-out: Cmax
[11] = Sprague-Dawley, rat, plasma, po, 4 g/kg, read-out: Tmax
[12] = PM/P (polyI:C+maoto vs polyI:C), 2h
[13] = PM/P (polyI:C+maoto vs polyI:C), 4h

| Structure (SMILES) | AUC(0-t) [1, 3] | Cmax [1, 4] | AUC(0-t) [1, 6] | half-life [1, 6] | Cmax [1, 7] | AUC(0-t) [1, 9] | half-life [1, 9] | Cmax [1, 10] | log2FC of plasma level ([2]; M/C (maoto vs control), 2h) | log2FC of plasma level ([2]; M/C (maoto vs control), 4h) | log2FC of plasma level ([2]; P/C (polyI:C vs control), 2h) | log2FC of plasma level ([2]; P/C (polyI:C vs control), 4h) | log2FC of plasma level [2, 12] | log2FC of plasma level [2, 13] | other results |
| --- | --- | --- | --- | --- | --- | --- | --- | --- | --- | --- | --- | --- | --- | --- | --- |
| CN[C@@H](C)[C@H](O)c1ccccc1 [l-Ephedrine, l-ephedrine] | 730 ng·h/mL | 311 ng/mL | 1560 ng·h/mL | 1.44 h | 377 ng/mL | 2850 ng·h/mL | 4.19 h | 545 ng/mL |  |  |  |  |  |  | half-life [1, 3]: 1.35 h; Tmax [1, 5]: 0.25 h; Tmax [1, 8]: 1 h; Tmax [1, 11]: 0.25 h |
| O=C1C[C@@H](c2ccc(O)cc2)Oc2cc(O)ccc21 [Liquiritigenin] |  |  |  |  |  |  |  |  |  |  |  |  |  |  | AUClast ([1]; rat plasma, oral maoto 1 g/kg): 17.4 ng·h/mL; Cmax ([1]; rat plasma, oral maoto 1 g/kg): 18.0 ng/mL; Tmax ([1]; rat plasma, oral maoto 1 g/kg): 0.250 h; AUClast ([1]; rat plasma, oral maoto 2 g/kg): 35.0 ng·h/mL; Cmax ([1]; rat plasma, oral maoto 2 g/kg): 15.1 ng/mL; Tmax ([1]; rat plasma, oral maoto 2 g/kg): 1.00 h; AUClast ([1]; rat plasma, oral maoto 4 g/kg): 84.4 ng·h/mL; Cmax ([1]; rat plasma, oral maoto 4 g/kg): 16.1 ng/mL; Tmax ([1]; rat plasma, oral maoto 4 g/kg): 0.250 h |
| Oc1cc(O)c2c(c1)O[C@H](c1cc(O)c(O)c(O)c1)[C@H](O)C2 [Epigallocatechin] | 0.457 ng·h/mL | 0.197 ng/mL | 0.26 ng·h/mL | 3.16 h | 0.103 ng/mL | 0.286 ng·h/mL | 0.834 h | 0.456 ng/mL |  |  |  |  |  |  | half-life [1, 3]: 5.23 h; Tmax [1, 5]: 0.5 h; Tmax [1, 8]: 0.5 h; Tmax [1, 11]: 0.25 h |
| CN[C@@H](C)[C@@H](O)c1ccccc1 [d-Pseudoephedrine, d-pseudoephedrine] | 183 ng·h/mL | 136 ng/mL | 559 ng·h/mL | 6.58 h | 163 ng/mL | 1180 ng·h/mL | 3.86 h | 253 ng/mL |  |  |  |  |  |  | half-life [1, 3]: 5.82 h; Tmax [1, 5]: 0.25 h; Tmax [1, 8]: 0.25 h; Tmax [1, 11]: 0.25 h |
| N#C[C@H](O[C@@H]1O[C@H](CO)[C@@H](O)[C@H](O)[C@H]1O)c1ccccc1 [Prunasin] | 5520 ng·h/mL | 2020 ng/mL | 11900 ng·h/mL | 2.45 h | 2240 ng/mL | 32000 ng·h/mL | 3.21 h | 3250 ng/mL |  |  |  |  |  |  | half-life [1, 3]: 0.891 h; Tmax [1, 5]: 0.5 h; Tmax [1, 8]: 0.5 h; Tmax [1, 11]: 2 h |
| O=C(/C=C/c1ccc(O)cc1)c1ccc(O)cc1O [Isoliquiritigenin] | 19.8 ng·h/mL | 10.4 ng/mL | 31 ng·h/mL | 11.1 h | 10.1 ng/mL | 58.9 ng·h/mL | 3.61 h | 7.59 ng/mL |  |  |  |  |  |  | Tmax [1, 5]: 0.25 h; Tmax [1, 8]: 0.25 h; Tmax [1, 11]: 0.25 h; t1/2 ([1]; rat plasma, oral maoto 1 g/kg): 3.42 h |
| CC(C(O)c1ccccc1)N(C)C (racemic) [dl-Methylephedrine] | 18.7 ng·h/mL | 16.6 ng/mL | 46 ng·h/mL | 1.99 h | 22.5 ng/mL | 94.9 ng·h/mL | 11.5 h | 37 ng/mL |  |  |  |  |  |  | half-life [1, 3]: 5.96 h; Tmax [1, 5]: 0.25 h; Tmax [1, 8]: 0.25 h; Tmax [1, 11]: 0.25 h |
| Oc1cc(O)c2c(c1)O[C@H](c1ccc(O)c(O)c1)[C@@H](O)C2 [(+)-Catechin] |  |  |  |  |  |  |  |  |  |  |  |  |  |  | AUClast ([1]; rat plasma, oral maoto 1 g/kg): BQL; Cmax ([1]; rat plasma, oral maoto 1 g/kg): BQL; AUClast ([1]; rat plasma, oral maoto 2 g/kg): 0.111 ng·h/mL; Cmax ([1]; rat plasma, oral maoto 2 g/kg): 0.443 ng/mL; Tmax ([1]; rat plasma, oral maoto 2 g/kg): 1.00 h; AUClast ([1]; rat plasma, oral maoto 4 g/kg): 1.71 ng·h/mL; Cmax ([1]; rat plasma, oral maoto 4 g/kg): 3.75 ng/mL; Tmax ([1]; rat plasma, oral maoto 4 g/kg): 0.250 h |
| O=C(O)/C=C/c1ccccc1 [Cinnamic acid] | 624 ng·h/mL | 1060 ng/mL | 2060 ng·h/mL | 1.3 h | 1280 ng/mL | 5750 ng·h/mL | 1.64 h | 2120 ng/mL |  |  |  |  |  |  |  |
| CCCCC/C=C\CC1OC1CCCCCCCC(=O)O (stereo not drawn) [9,10-EpOME] |  |  |  |  |  |  |  |  | 0.04 | -0.80 | 0.10 | 0.36 | -0.30 | -1.14 |  |
| CCCCC/C=C\CC(O)C(O)C/C=C\C/C=C\CCCC(=O)O (stereo not drawn) [11,12-DHET] |  |  |  |  |  |  |  |  | 0.90 | 0.13 | -0.15 | 0.23 | 0.19 | -0.31 |  |
| CC/C=C\C/C=C\C/C=C\C/C=C\C=C\C(O)CCCC(=O)O (stereo not drawn) [5-HEPE] |  |  |  |  |  |  |  |  | 0.39 | -0.35 | 0.16 | 0.04 | 0.10 | -0.47 |  |
| CCCCC[C@H](O)/C=C/C=C\C/C=C\C/C=C\CCCC(=O)O [15-HETE] |  |  |  |  |  |  |  |  | -0.07 | -0.49 | -0.12 | 0.56 | -0.02 | -0.78 |  |
| CCCCCC(O)C(O)C/C=C\C/C=C\C/C=C\CCCC(=O)O (stereo not drawn) [14,15-DHET] |  |  |  |  |  |  |  |  | 0.79 | 0.01 | 0.07 | 0.40 | 0.22 | -0.41 |  |
| CCCCCC(=O)CCC1C(O)CC(O)C1CC(=O)CCCCC(=O)O (stereo not drawn) [6,15-diketo-13,14-dihydro-PGF1α] |  |  |  |  |  |  |  |  |  |  |  |  |  |  | log2FC of plasma level [2]: -0.52; log2FC of plasma level ([2]; first value of an incomplete line, time (2h or 4h) not assignable): 1.63 |
| CCCCCC(O)/C=C/C=C/C/C=C/CCCC(=O)O (stereo not drawn) [12-HHT] |  |  |  |  |  |  |  |  | 0.48 | -0.39 | 0.33 | 1.13 | -0.01 | -1.45 |  |
| CCCCC/C=C\C=C\[C@H](CCCCCCCC(=O)O)OO [9-HpODE, 9S-hydroperoxy-10E,12Z-octadecadienoic acid] |  |  |  |  |  |  |  |  | 2.26 | -2.31 | 0.65 | 0.35 | -0.77 | -1.51 |  |
| CCCCC/C=C\C/C=C\C/C=C\CC(O)C(O)CCCC(=O)O (stereo not drawn) [5,6-DHET] |  |  |  |  |  |  |  |  | 0.42 | -0.54 | -0.14 | 0.11 | 0.23 | -0.71 |  |
| CCCCCC(=O)/C=C/[C@H]1[C@H](O)CC(=O)[C@@H]1C/C=C\CCCC(=O)O [15-keto-PGE2] |  |  |  |  |  |  |  |  | -0.28 | -0.61 | -0.15 | 0.64 | -0.07 | -1.08 |  |
| CCCCC/C=C\C\C=C/C=C/C=C/[C@@H](SC[C@H](N)C(=O)O)[C@@H](O)CCCC(=O)O [LTE4] |  |  |  |  |  |  |  |  | -0.95 | -1.00 | 1.04 | 0.58 | -0.91 | -0.51 |  |
| CCCCCC(O)C(O)C/C=C\CCCCCCCC(=O)O (stereo not drawn) [12,13-DiHOME] |  |  |  |  |  |  |  |  | 0.57 | -0.31 | 0.25 | 0.12 | 0.26 | -0.28 |  |
| CCCCC/C=C\CC(O)C(O)CCCCCCCC(=O)O (stereo not drawn) [9,10-DiHOME] |  |  |  |  |  |  |  |  | 0.50 | -0.34 | 0.31 | -0.14 | 0.19 | -0.10 |  |

— PMC5654968 (NPJ Systems Biology and Applications, 2017)
